The results in this text go back to PMC10801775 (The Journal of Pharmacology and Experimental Therapeutics, 2024).

Molecules are shown by their SMILES.

For assay [1] the following is noted: rat, in vivo.
On the set-up of assay [2]: species or system Sprague-Dawley rats. The note with it: rat, in vivo.

As to `CCOP(=O)(OCC)Oc1ccc([N+](=O)[O-])cc1` [POX, O,O-diethyl-O-p-nitrophenylphosphate], in assay [1], the “RBC fraction relative to naïve and 60-minute studies” value was “about twice”; the “RBC fraction, % of total radioactivity” value is 20%; the “metabolite level in blood relative to naïve rats (or rats 60 minutes after POX)” value worked out at 5 fold; the “reduction of total percent radioactivity of plasma proteins” value is reported as ~20%. Besides, in assay [2], the “brain AUC as % of naïve” value is given as > 80%; the “heart AUC restored, % of naïve AUC level” value is on record as 25%; the “liver AUC increase versus naïve” value came out at 4 fold; the “lung AUC restored, % of naïve AUC level” value is on record as 50%. For the same compound, the “mean brain region radioactivity higher than naïve rats” value in assay [2] is listed as “up to 2 fold”.
